These results are taken from ChEMBL document CHEMBL1123679, “5-Quinone derivatives of 2'-deoxyuridine 5'-phosphate: inhibition and inactivation of thymidylate synthase, antitumor cell, and antiviral studies” (J Med Chem, 1987).

Experiment [1] deals with T1, Thymidylate synthase (Lactobacillus casei) (UniProt P00469).
T1 sequence (whole entry): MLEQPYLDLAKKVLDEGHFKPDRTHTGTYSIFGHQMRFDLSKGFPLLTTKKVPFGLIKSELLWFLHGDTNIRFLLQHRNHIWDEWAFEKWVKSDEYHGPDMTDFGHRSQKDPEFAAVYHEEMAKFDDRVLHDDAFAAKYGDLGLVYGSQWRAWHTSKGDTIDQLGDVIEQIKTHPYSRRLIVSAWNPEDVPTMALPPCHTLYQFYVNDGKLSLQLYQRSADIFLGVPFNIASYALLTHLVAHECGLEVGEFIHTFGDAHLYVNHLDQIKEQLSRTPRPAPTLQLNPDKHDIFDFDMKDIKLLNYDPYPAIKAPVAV
Conditions: Lacticaseibacillus casei; 10 uM.

The target of experiment [2] is T1, Thymidylate synthase (Lactobacillus casei). Conditions: Lacticaseibacillus casei.
Experiment [3] in a line: Apparent second order rate constant determined as the ratio of kinact/Ki.
For experiment [4], the target named is T1, Thymidylate synthase (Lactobacillus casei). Conditions: Lacticaseibacillus casei. This is another data set of the same source.
The target is the same in experiment [5]. To be noted: Lacticaseibacillus casei. The source holds these as a separate data set.
Experiment [6] has the same target. Conditions: Lacticaseibacillus casei. This is another data set of the same source.
The target is the same in experiment [7]. To be noted: Lacticaseibacillus casei. The source holds these as a separate data set.
The target is the same in experiment [8]. Conditions: Lacticaseibacillus casei. The source holds these as a separate data set.
For experiment [9] the target is unchanged. To be noted: Lacticaseibacillus casei. The source holds these as a separate data set.
For experiment [10] the target is unchanged. To be noted: Lacticaseibacillus casei. The source holds these as a separate data set.
Experiment [11] shares this target. Briefly: Kinetic constant for inactivation of Lactobacillus casei thymidylate synthase from double reciprocal plots. Conditions: Lacticaseibacillus casei.
The target is the same in experiment [12]. Put plainly: Kinetic constant for the inactivation of Lactobacillus casei thymidylate synthase was determined at 10 uM concentration using 0 uM of substrate. Conditions: Lacticaseibacillus casei.

Molecule `CC1=C(C)C(=O)C(c2cn([C@H]3C[C@H](O)[C@@H](COP(=O)(O)O)O3)c(=O)[nH]c2=O)=C(C)C1=O` registered a K obs / s in [1] of 0.0084. Also, the K inact in experiment [2] was found to be 0.014 s⁻¹.
Take `CC1=C(C)C(=O)C(c2cn([C@H]3C[C@H](O)[C@@H](COP(=O)(O)O)O3)c(=O)[nH]c2=O)=CC1=O`: the Ratio in experiment [3] stood at 2.5. Moreover, the k obs in experiment [4] was determined as 0.0052 s⁻¹; in [5] it was 0.0028 s⁻¹; in experiment [6], 0.0092 s⁻¹; in [7], 0.0066 s⁻¹; in experiment [8] it was 0.011 s⁻¹; in experiment [9] it was 0.015 s⁻¹. Also, in experiment [10], the k obs stood at 0.011 s⁻¹. In [2], this molecule displayed a K inact of 0.015 s⁻¹.
For `O=C1C=CC(=O)C(c2cn([C@H]3C[C@H](O)[C@@H](COP(=O)(O)O)O3)c(=O)[nH]c2=O)=C1`, the K inact in [11] was found to be 0.065 s⁻¹. Further, the Ratio in experiment [3] came to 3.2.
In experiment [12], `CC1=C(C)C(=O)C(c2cn([C@H]3C[C@H](O)[C@@H](CO)O3)c(=O)[nH]c2=O)=CC1=O` registered a k obs of 4e-05 s⁻¹.
